# Experimental data: ChEMBL document CHEMBL1122355, “Quantitative structure-activity relationships for 2-[(phenylmethyl)sulfonyl]pyridine 1-oxide herbicides” (1983)
# Tests used:
# Assay type in all cases: functional
# Echinochloa crus-galli = assay: Herbicidal activity against barnyard grass (Echinochloa crusgalli L. Beauv.) as the dose required for 50% control
# Panicum virgatum = assay: Herbicidal activity against Switch grass (Panicum virgatum L.) as the dose required for 50% control
# Setaria viridis = assay: Herbicidal activity against green foxtail (Setaria viridis L. Beauv.) as the dose required for 50% control
Compound,-Log ED50 (Echinochloa crus-galli) [M acre-1],-Log ED50 (Panicum virgatum) [M acre-1],-Log ED50 (Setaria viridis) [M acre-1]
Cc1ccc(C)c(C(C)S(=O)(=O)c2cccc[n+]2[O-])c1 (centres undefined),1.3,1.25,1.25
Cc1ccc(C)c(CS(=O)(=O)c2cccc[n+]2[O-])c1,1.09,0.99,0.39
Cc1ccc(C(F)(F)F)cc1C(C)S(=O)(=O)c1cccc[n+]1[O-] (centres undefined),0.79,1.09,1.09
CC(c1ccc(S(C)(=O)=O)cc1)S(=O)(=O)c1cccc[n+]1[O-] (centres undefined),-0.43,-0.35,-0.43
O=S(=O)(Cc1ccccc1)c1cccc[n+]1[O-],0.29,0.04,0.14
O=S(=O)(Cc1ccc(-c2ccccc2)cc1)c1cccc[n+]1[O-],-0.69,-0.19,-0.54
Cc1ccc(C)c(CS(=O)(=O)c2cccc[n+]2[O-])c1C,0.7,0.7,0.7
O=S(=O)(Cc1ccccc1Cl)c1cccc[n+]1[O-],0.85,0.4,0.43
Cc1ccc(C(C)C)cc1C(C)S(=O)(=O)c1cccc[n+]1[O-] (centres undefined),0.89,0.7,0.57
CCc1ccc(CC)c(C(C)S(=O)(=O)c2cccc[n+]2[O-])c1 (centres undefined),1.15,1.15,1.05
CC(c1ccc([N+](=O)[O-])cc1)S(=O)(=O)c1cccc[n+]1[O-] (centres undefined),0.43,0.43,0.23
CC(C)c1ccc(C(C)C)c(CS(=O)(=O)c2cccc[n+]2[O-])c1,-0.02,-0.02,-0.02
O=S(=O)(Cc1ccccc1Oc1ccccc1)c1cccc[n+]1[O-],-0.12,0.11,-0.03
O=S(=O)(Cc1c(Cl)cccc1Cl)c1cccc[n+]1[O-],0.96,0.74,0.74
O=S(=O)(Cc1cccc(Br)c1)c1cccc[n+]1[O-],0.16,0.03,-0.14
O=S(=O)(Cc1ccccc1F)c1cccc[n+]1[O-],0.37,0.77,0.07
Cc1ccc(C(C)S(=O)(=O)c2cccc[n+]2[O-])cc1C (centres undefined),1.31,1.24,1.07
O=S(=O)(Cc1c(Cl)ccc(Cl)c1Cl)c1cccc[n+]1[O-],0.81,0.81,0.49
CC(C)c1ccc(CS(=O)(=O)c2cccc[n+]2[O-])cc1,-0.1,0.62,-0.1

Compound,-Log ED50 (Echinochloa crus-galli) [M acre-1],-Log ED50 (Panicum virgatum) [M acre-1],-Log ED50 (Setaria viridis) [M acre-1]
CC(c1cc(Cl)ccc1Cl)S(=O)(=O)c1cccc[n+]1[O-] (centres undefined),1.07,1.07,0.86
Cc1c(Cl)ccc(C(C)S(=O)(=O)c2cccc[n+]2[O-])c1Cl (centres undefined),0.68,1,0.89
COc1cc(CS(=O)(=O)c2cccc[n+]2[O-])cc(OC)c1OC,-0.77,-0.77,-0.79
Cc1cc(Cl)ccc1C(C)S(=O)(=O)c1cccc[n+]1[O-] (centres undefined),0.84,0.98,0.79
N#Cc1ccccc1CS(=O)(=O)c1cccc[n+]1[O-],0.18,-0.22,-0.01
CC(c1cccc(Cl)c1F)S(=O)(=O)c1cccc[n+]1[O-] (centres undefined),1.36,1.24,1.05
CC(c1cccc(C(F)(F)F)c1)S(=O)(=O)c1cccc[n+]1[O-] (centres undefined),0.46,1.37,0.77
Cc1ccc(Cl)c(C(C)S(=O)(=O)c2cccc[n+]2[O-])c1 (centres undefined),1.35,0.82,0.66
COc1ccc(Br)c(CS(=O)(=O)c2cccc[n+]2[O-])c1,0.6,0.95,0.5
CC(C)c1ccc(C(C)C)c(C(C)S(=O)(=O)c2cccc[n+]2[O-])c1 (centres undefined),0.78,0.19,0.19
O=S(=O)(Cc1ccccc1I)c1cccc[n+]1[O-],0.52,0.32,0.22
CC(c1cc(F)ccc1F)S(=O)(=O)c1cccc[n+]1[O-] (centres undefined),1.22,1.22,1.17
CCCCOc1cccc(CS(=O)(=O)c2cccc[n+]2[O-])c1,0.15,-0.15,-0.15
CC(c1ccc(Cl)cc1)S(=O)(=O)c1cccc[n+]1[O-] (centres undefined),0.9,1.14,0.82
COc1ccc(C)cc1CS(=O)(=O)c1cccc[n+]1[O-],1.02,0.73,0.41
CC(c1cc(C(F)(F)F)ccc1Cl)S(=O)(=O)c1cccc[n+]1[O-] (centres undefined),0.91,1.26,0.63
Cc1ccccc1C(C)S(=O)(=O)c1cccc[n+]1[O-] (centres undefined),1.58,1.29,1.29
COc1ccc(CS(=O)(=O)c2cccc[n+]2[O-])cc1OC,0.13,0.23,-0.01
CC(c1c(F)cccc1Cl)S(=O)(=O)c1cccc[n+]1[O-] (centres undefined),1.35,1.65,1.35
